Data on three molecules can be found in PMC11938014, “Development and Application of Small Molecule–Peptide Conjugates as Cathepsin K-Specific Covalent Irreversible Inhibitors in Human Osteoclast and Lung Cancer” (JACS Au, 2025).

Test [1] deals with T1, Recombinant human cathepsin B (Homo sapiens, UniProt P07858).
T1 construct: made in house
The test can be described thus: Recombinant cathepsin inhibition, gel-based competition with GB123 probe. The format is biochemical. As to conditions: Table S2; three independent competition gel-based experiments; read-out: CTSB (IC50). The protocol: (§1) In-gel fluorescence analysis was used to detect the residual activity of the cathepsins by applying pan-cathepsin probe GB123 to detect the stable enzyme–probe complex. This approach is used for testing inhibition and selectivity.[37],[41]
(§2) Recombinant human cathepsin L (0.5 μM), cathepsin B (0.5 μM), cathepsin K (0.5 μM), and cathepsin S (0.5 μM) were pretreated with different concentrations of inhibitors (GD compounds, odanacatib) for 1 h in reaction buffer (50 mM acetate, 2 mM dithiothreitol (DTT), and 5 mM MgCl2, pH 5.5) at 37 °C. GB123 (1 μM) was added and incubated with samples for 60 min at 37 °C.[37],[41] The reaction was stopped by the addition of sample buffer 4× (40% glycerol, 0.2 M Tris/HCl pH 6.8, 20% β-mercaptoethanol, 12% SDS, and 0.4 mg/mL bromophenol blue). Samples were then boiled, separated on a 12.5% SDS gel, and scanned for fluorescence by a Typhoon scanner FLA 9500 at excitation and emission wavelengths of 635 and 670 nm for GB123.
(§3) graphs were generated in GraphPad Prism software.

Test [2] addresses T2, Recombinant human cathepsin K (Homo sapiens, UniProt P43235).
T2 construct: made in house
T2 sequence (P43235 115-329): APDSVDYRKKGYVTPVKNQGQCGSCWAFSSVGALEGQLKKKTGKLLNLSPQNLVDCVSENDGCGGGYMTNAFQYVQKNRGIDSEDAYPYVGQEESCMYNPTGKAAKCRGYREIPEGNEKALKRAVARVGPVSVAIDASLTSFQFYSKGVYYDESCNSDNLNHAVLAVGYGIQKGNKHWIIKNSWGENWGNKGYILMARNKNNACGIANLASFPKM
The test is described as above. The format is biochemical. As to conditions: for concentration at which significant CTSK inhibition starts: Figure S5, recombinant CTSK. The protocol:
as §1, §2, §3

The target of test [3] is T3, Recombinant human cathepsin L (Homo sapiens, UniProt P07711).
T3 construct: made in house
Described as above. The format is biochemical. As to conditions: Table S2; three independent competition gel-based experiments; read-out: CTSL (IC50). The protocol: as §1, §2, §3

Test [4] addresses T4, endogenous cathepsin K in human osteoclasts (Homo sapiens, UniProt P43235).
T4 construct: endogenous in cells; host or cells: primary human osteoclasts differentiated from blood monocytes with M-CSF and RANKL
T4 sequence (P43235 115-329): T2 sequence (P43235 115-329)
Description: Fluorescence microscopy of CTSK inhibition in human osteoclasts. The settings on record: human OC, 3 μM, 2 h; for fluorescence signal of pan-cathepsin probe GB123: then GB123 2 h; for CTSK activity labeled by GD32 probe: then GD32 8 h. The format is cell-based. The protocol:
(§4) We next corroborated CTSK-specific inhibition by fluorescence microscopy studies of OC. Human OC were grown on 8-well plates; the intact cells were treated with either of the CTSK inhibitors or with the vehicle and then with the CTSK-specific fluorescent ABP GD32.[19] The fluorescence microscopy pictures were acquired following cell fixation, which permitted imaging and evaluating CTSK activity and inhibition in cells. […] As the inhibitors are specific to CTSK, they could not block the fluorescence signals of GB123 associated with other cathepsins (B, L, S) (Figure 8b).
(§5) Figure 8 Detection of inhibition of endogenous cathepsin K in intact cells by fluorescence microscopy. Enriched human monocytes from peripheral blood mononuclear cells (PBMC) were isolated from healthy donors’ blood and were treated for 14 days with M-CSF and RANKL or M-CSF alone, as indicated. Osteoclast cells were treated with vehicle (DMSO) or indicated inhibitors [3 μM] in a culture medium for 2 h, followed by incubation with (a) GD32 (a specific CTSK ABP) for 8 h or (b) GB123 for 2 h. Similar to those described in panel (a), cultures of U2-OS cells (c) and U-87 MG cells (d) were grown in 8-well chambers. Cells were pretreated with either the DMSO or [3 μM] of indicated specific CTSK inhibitors for 2 h and then labeled by the addition of 1.25 μM GD32 to the culture medium for 24 h (U2-OS) or 2 h (U-87 MG). After fixation, cells were stained with 4′,6-diamidino-2-phenylindole (DAPI) (nucleus), and images were captured by confocal microscopy.
Cells were seeded in 8-well chambers and then treated with an inhibitor or vehicle for 2 h. Cells were then labeled with the indicated probes for the indicated times and then washed with PBS, fixed with cold methanol, and mounted with DAPI-Fluoromount-G (SouthernBiotech, 0100-20) before visualization by confocal microscopy. Zeiss Confocal LSM 980 Microscope with Zen software was used with Airyscan (Germany).

Test [5] addresses T5, CTSK in U2-OS and U-87 MG cells (Homo sapiens, UniProt P43235).
T5 construct: endogenous in cells; host or cells: U2-OS and U-87 MG
T5 sequence (P43235 115-329): T2 sequence (P43235 115-329)
The test can be described thus: Fluorescence microscopy of CTSK inhibition in cell lines (GD32 probe). The format is cell-based. The settings on record: 3 μM, 2 h. The protocol: as §4
as §5, with “After fixation, cells were stained with 4′,6-diamidino-2-phenylindole (DAPI) (nucleus), and images were captured by confocal microscopy.” left out

Setting [6] is: Figure 4b IC50 curves, recombinant CTSK 0.5 μM, read-out: IC50 for inhibiting CTSK activity.

Read-outs that look alike come from different tables or passages of the source. Where only a bound is given, the exact number is not on record here.

T3 sequence (P07711 114-333): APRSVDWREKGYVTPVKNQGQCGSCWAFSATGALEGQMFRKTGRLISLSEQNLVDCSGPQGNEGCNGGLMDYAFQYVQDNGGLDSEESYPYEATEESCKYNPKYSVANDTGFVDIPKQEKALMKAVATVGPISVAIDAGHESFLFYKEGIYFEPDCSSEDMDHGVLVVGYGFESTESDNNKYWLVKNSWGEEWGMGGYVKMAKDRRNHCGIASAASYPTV

For the molecule `CC(C)(F)C[C@H](N[C@@H](c1ccc(-c2ccc(S(C)(=O)=O)cc2)cc1)C(F)(F)F)C(=O)NC1(C#N)CC1` [ODN, odanacatib, reference compound], the 50% inhibitory concentration (IC50) was above 10000 nM in test [1]; 350 ± 0.05 nM in test [2] (Table S2, value in nM, read-out: CTSK (IC50)); above 10000 nM in test [3].
On to `CC(C)C[C@H](N[C@@H](c1ccc(-c2ccc(S(C)(=O)=O)cc2)cc1)C(F)(F)F)C(=O)NCC(=O)COC(=O)[C@@H]1CCCN1C(=O)[C@H](CCC(N)=O)NC(=O)OCC1c2ccccc2-c2ccccc21` [GD38], for which the “fluorescence signal of pan-cathepsin probe GB123” value in test [4] is “only a partial reduction”. Besides, the entries for the “CTSK activity labeled by GD32 probe” value in test [4] and in test [5] were “completely abolished CTSK activity” and “block CTSK activity”, respectively. Also, the IC50 in test [1] is above 10000 nM; in test [2] (setting [6]), 210 ± 27 nM; in test [2] (Table S2, three independent competition gel-based experiments, read-out: CTSK (IC50)) it was 200 ± 20 nM; in test [3], above 10000 nM. The “concentration at which significant CTSK inhibition starts” value in test [2] was found to be 0.062 µM.
With `CC(C)C[C@H](N[C@@H](c1ccc(-c2ccc(S(C)(=O)=O)cc2)cc1)C(F)(F)F)C(=O)NCC(=O)COC(=O)[C@@H]1CCCN1C(=O)[C@H](CC(C)C)NC(=O)OCC1c2ccccc2-c2ccccc21` [GD20], the “fluorescence signal of pan-cathepsin probe GB123” value in test [4] was “only a partial reduction”. Also, the entries for the “CTSK activity labeled by GD32 probe” value in test [4] and in test [5] were “completely abolished CTSK activity” and “block CTSK activity”, respectively. For the same molecule, the values for the IC50 in test [1], in test [2] (setting [6]) and in test [3] were above 10000 nM, 460 ± 77 nM and above 10000 nM, respectively. Further, the “concentration at which significant CTSK inhibition starts” value in test [2] came to 0.25 µM.

As usually defined, the IC50 is the midpoint of a concentration-inhibition curve.
